Like-named read-outs stand apart in the source and are kept apart here.
What was measured:
Assay type in all cases: in vivo
Avena fatua [1] = assay: Post-emergence herbicidal action against harmful plants; conditions: dosage 80 g/ha, visual rating after about 3 weeks (Table D)
From the text: (§1) The abbreviations used in the tables below denote: • ABUTH Abutilon theophrasti • AMARE Amaranthus retroflexus • ECHCG Echinochloa crus galli • PHBPU Phartoitis purpureum • STEME Stellaria media • ALOMY Alopecurus myosuroides • AVEFA Avena fatua • MATIN Matricaria inodora • POLCO Fallopia convolvulus • VERPE Veronica persica 1. Pre-emergence Herbicidal Action Against Harmful Plants Seeds of monocotyledonous and dicotyledonous weed and crop plants are placed in sandy loam in wood-fibre pots, covered with soil and cultivated in a greenhouse under good growth conditions. 2 to 3 weeks after sowing, the test plants are treated at the one-leaf stage. The compounds according to the invention, formulated in the form of wettable powders (WP) or as emulsion concentrates (EC), are then sprayed as aqueous suspension or emulsion at a water application rate of 600 to 800 I/ha (converted) with the addition of 0.2% of wetting agent onto the green parts of the plants. After the test plants have been kept in the greenhouse under optimum growth conditions for about 3 weeks, the activity of the preparations is rated visually in comparison to untreated controls (herbicidal activity in percent (%): 100% activity=the plants have died, 0% activity=control plants, —=not tested).

Fallopia convolvulus = assay: as above; conditions: 504 h, dosage 80 g/ha, read-out: Herbicidal action against POLCO
From the text: as §1

Phartoitis purpureum [2] = assay: as above; conditions: 504 h, dosage 80 g/ha
From the text: as §1

Amaranthus retroflexus [3] = assay: as above; conditions: 504 h, dosage 80 g/ha, visual rating after about 3 weeks (Table D), read-out: Herbicidal action against AMARE
From the text: as §1

Stellaria media [4] = assay: as above; conditions: 504 h, dosage 80 g/ha, visual rating after about 3 weeks (Table D), read-out: Herbicidal action against STEME
From the text: as §1

Matricaria inodora [5] = assay: as above; conditions: Tripleurospermum inodorum, 504 h, dosage 80 g/ha, read-out: Herbicidal action against MATIN
From the text: as §1

Veronica persica [6] = assay: as above; conditions: 504 h, dosage 80 g/ha, visual rating after about 3 weeks (Table D), read-out: Herbicidal action against VERPE
From the text: as §1

Echinochloa crus galli [7] = assay: as above; conditions: 504 h, dosage 80 g/ha, read-out: Herbicidal action against ECHCG
From the text: as §1

Avena fatua [8] = assay: Pre-emergence herbicidal action against harmful plants; conditions: dosage 320 g/ha, visual assessment after 3 weeks (Table A)
From the text: (§2) The abbreviations used in the tables below denote: • ABUTH Abutilon theophrasti • AMARE Amaranthus retroflexus • ECHCG Echinochloa crus galli • PHBPU Phartoitis purpureum • STEME Stellaria media • ALOMY Alopecurus myosuroides • AVEFA Avena fatua • MATIN Matricaria inodora • POLCO Fallopia convolvulus • VERPE Veronica persica 1. Pre-emergence Herbicidal Action Against Harmful Plants Seeds of monocotyledonous and dicotyledonous weed plants and crop plants are placed in wood-fibre pots in sandy loam and covered with soil. The compounds according to the invention and the compounds known from the prior art, formulated in the form of wettable powders (WP) or as emulsion concentrates (EC), are then applied as aqueous suspension or emulsion at a water application rate of 600 to 800 I/ha (converted) with the addition of 0.2% of wetting agent to the surface of the covering soil. After the treatment, the pots are placed in a greenhouse and kept under good growth conditions for the test plants. The visual assessment of the damage to the test plants is carried out after a trial period of 3 weeks by comparison with untreated controls (herbicidal activity in percent (%): 100% activity=the plants have died, 0% activity=like control plants, —=not tested). The results of comparative table A show the compounds according to the invention have a higher herbicidal activity than the compounds of the greatest structural similarity known from the closest prior art.

Alopecurus myosuroides = assay: as above; conditions: dosage 320 g/ha, visual assessment after 3 weeks (Table A)
From the text: as §2

Phartoitis purpureum [9] = assay: as above; conditions: dosage 320 g/ha; for Herbicidal action against PHBPU: visual assessment after 3 weeks (Table A); for Herbicidal action against PHPBU: visual assessment after 3 weeks (Table C)
From the text: as §2

Amaranthus retroflexus [10] = assay: as above; conditions: 504 h, dosage 320 g/ha, read-out: Herbicidal action against AMARE
From the text: as §2

Stellaria media [11] = assay: as above; conditions: 504 h, dosage 320 g/ha, visual assessment after 3 weeks (Table A), read-out: Herbicidal action against STEME
From the text: as §2

Matricaria inodora [12] = assay: as above; conditions: dosage 320 g/ha; for pest or weed control at 320 g/ha: Tripleurospermum inodorum, 504 h, read-out: Herbicidal action against MATIN
From the text: as §2

Veronica persica [13] = assay: as above; conditions: 504 h, dosage 320 g/ha, visual assessment after 3 weeks (Table A), read-out: Herbicidal action against VERPE
From the text: as §2

Echinochloa crus galli [14] = assay: as above; conditions: dosage 320 g/ha; for pest or weed control at 320 g/ha: Echinochloa, 504 h, read-out: Herbicidal action against ECHCG
From the text: as §2

Abutilon theophrasti = assay: as above; conditions: dosage 320 g/ha; for pest or weed control at 320 g/ha: Abutilon theophrasti, 504 h, read-out: Herbicidal action against ABUTH
From the text: as §2

SETVI = assay: as above; conditions: dosage 320 g/ha, visual assessment after 3 weeks (Table C)
From the text: as §2, with “Seeds” for “The abbreviations used in the tables below denote: • ABUTH Abutilon theophrasti • AMARE Amaranthus retroflexus • ECHCG Echinochloa crus galli • PHBPU Phartoitis purpureum • STEME Stellaria media • ALOMY Alopecurus myosuroides • AVEFA Avena fatua • MATIN Matricaria inodora • POLCO Fallopia convolvulus • VERPE Veronica persica 1. Pre-emergence Herbicidal Action Against Harmful Plants Seeds”

VIOTR [15] = assay: as above; conditions: dosage 320 g/ha, visual assessment after 3 weeks (Table C)
From the text: as §2, with “Seeds” for “The abbreviations used in the tables below denote: • ABUTH Abutilon theophrasti • AMARE Amaranthus retroflexus • ECHCG Echinochloa crus galli • PHBPU Phartoitis purpureum • STEME Stellaria media • ALOMY Alopecurus myosuroides • AVEFA Avena fatua • MATIN Matricaria inodora • POLCO Fallopia convolvulus • VERPE Veronica persica 1. Pre-emergence Herbicidal Action Against Harmful Plants Seeds”

VIOTR [16] = assay: Post-emergence herbicidal action against harmful plants; conditions: dosage 80 g/ha, visual rating after about 3 weeks (Table E)
Description: as §1, with “Seeds” for “The abbreviations used in the tables below denote: • ABUTH Abutilon theophrasti • AMARE Amaranthus retroflexus • ECHCG Echinochloa crus galli • PHBPU Phartoitis purpureum • STEME Stellaria media • ALOMY Alopecurus myosuroides • AVEFA Avena fatua • MATIN Matricaria inodora • POLCO Fallopia convolvulus • VERPE Veronica persica 1. Pre-emergence Herbicidal Action Against Harmful Plants Seeds”

[17] = visual rating after about 3 weeks (Table D)
[18] = visual rating after about 3 weeks (Table D), read-out: Herbicidal action against PHBPU
[19] = visual assessment after 3 weeks (Table A)
[20] = visual rating after about 3 weeks (Table E)
[21] = visual rating after about 3 weeks (Table E), read-out: Herbicidal action against PHPBU
[22] = visual assessment after 3 weeks (Table C)

## CN(C)C(=O)COc1c(Cl)ccc(C(=O)C2=C(O)CCCC2=O)c1C(F)(F)F [Compound E1]
Avena fatua [1]
  Herbicidal action against AVEFA: 80%
Fallopia convolvulus; [17]
  pest or weed control at 80 g/ha: 100%
Phartoitis purpureum [2]; [18]
  pest or weed control at 80 g/ha: 90%
Amaranthus retroflexus [3]
  pest or weed control at 80 g/ha: 80%
Stellaria media [4]
  pest or weed control at 80 g/ha: 90%
Matricaria inodora [5]; [17]
  pest or weed control at 80 g/ha: 100%
Veronica persica [6]
  pest or weed control at 80 g/ha: 90%
Echinochloa crus galli [7]; [17]
  pest or weed control at 80 g/ha: 90%
Avena fatua [8]
  Herbicidal action against AVEFA: 90%
Alopecurus myosuroides
  Herbicidal action against ALOMY: 100%
Phartoitis purpureum [9]
  Herbicidal action against PHBPU: 80%
Amaranthus retroflexus [10]; [19]
  pest or weed control at 320 g/ha: 100%
Stellaria media [11]
  pest or weed control at 320 g/ha: 90%
Matricaria inodora [12]; [19]
  pest or weed control at 320 g/ha: 100%
Veronica persica [13]
  pest or weed control at 320 g/ha: 100%
Echinochloa crus galli [14]; [19]
  pest or weed control at 320 g/ha: 100%
Abutilon theophrasti; [19]
  pest or weed control at 320 g/ha: 100%

## CCS(=O)(=O)c1ccc(C(=O)C2=C(O)CCCC2=O)c(C(F)(F)F)c1OCC(=O)N(C)OC [Compound E8]
SETVI
  Herbicidal action against SETVI: 90%
VIOTR [15]
  Herbicidal action against VIOTR: 100%
Fallopia convolvulus; [20]
  pest or weed control at 80 g/ha: 90%
Phartoitis purpureum [2]; [21]
  pest or weed control at 80 g/ha: 80%
Matricaria inodora [5]; [20]
  pest or weed control at 80 g/ha: 90%
Echinochloa crus galli [7]; [20]
  pest or weed control at 80 g/ha: 90%
VIOTR [16]
  Herbicidal action against VIOTR: 90%
Phartoitis purpureum [9]
  Herbicidal action against PHPBU: 90%
Amaranthus retroflexus [10]; [22]
  pest or weed control at 320 g/ha: 100%
Stellaria media [11]
  pest or weed control at 320 g/ha: 100%
Matricaria inodora [12]; [19]
  pest or weed control at 320 g/ha: 100%
Matricaria inodora [12]; [22]
  Herbicidal action against MATIN: 100%
Veronica persica [13]
  pest or weed control at 320 g/ha: 100%
Echinochloa crus galli [14]; [19]
  pest or weed control at 320 g/ha: 100%
Echinochloa crus galli [14]; [22]
  Herbicidal action against ECHCG: 100%
Abutilon theophrasti; [19]
  pest or weed control at 320 g/ha: 100%
Abutilon theophrasti; [22]
  Herbicidal action against ABUTH: 100%

## CN(C)C(=O)COc1c(Cl)ccc(C(=O)C2=C(O)CCCC2=O)c1Cl [Compound S1, reference compound]
Avena fatua [1]
  Herbicidal action against AVEFA: 50%
Fallopia convolvulus; [17]
  pest or weed control at 80 g/ha: 60%
Phartoitis purpureum [2]; [18]
  pest or weed control at 80 g/ha: 70%
Amaranthus retroflexus [3]
  pest or weed control at 80 g/ha: 80%
Stellaria media [4]
  pest or weed control at 80 g/ha: 70%
Matricaria inodora [5]; [17]
  pest or weed control at 80 g/ha: 100%
Veronica persica [6]
  pest or weed control at 80 g/ha: 70%
Echinochloa crus galli [7]; [17]
  pest or weed control at 80 g/ha: 50%
Avena fatua [8]
  Herbicidal action against AVEFA: 20%
Alopecurus myosuroides
  Herbicidal action against ALOMY: 40%
Phartoitis purpureum [9]
  Herbicidal action against PHBPU: 40%
Amaranthus retroflexus [10]; [19]
  pest or weed control at 320 g/ha: 60%
Stellaria media [11]
  pest or weed control at 320 g/ha: 80%
Matricaria inodora [12]; [19]
  pest or weed control at 320 g/ha: 100%
Veronica persica [13]
  pest or weed control at 320 g/ha: 70%
Echinochloa crus galli [14]; [19]
  pest or weed control at 320 g/ha: 30%
Abutilon theophrasti; [19]
  pest or weed control at 320 g/ha: 90%

## CCS(=O)(=O)c1ccc(C(=O)C2=C(O)CCCC2=O)c(Cl)c1OCC(=O)N(C)OC [Compound S8, reference compound]
SETVI
  Herbicidal action against SETVI: 50%
VIOTR [15]
  Herbicidal action against VIOTR: 20%
Fallopia convolvulus; [20]
  pest or weed control at 80 g/ha: 80%
Phartoitis purpureum [2]; [21]
  pest or weed control at 80 g/ha: 80%
Matricaria inodora [5]; [20]
  pest or weed control at 80 g/ha: 60%
Echinochloa crus galli [7]; [20]
  pest or weed control at 80 g/ha: 80%
VIOTR [16]
  Herbicidal action against VIOTR: 80%
Phartoitis purpureum [9]
  Herbicidal action against PHPBU: 70%
Amaranthus retroflexus [10]; [22]
  pest or weed control at 320 g/ha: 90%
Matricaria inodora [12]; [22]
  pest or weed control at 320 g/ha: 90%
Echinochloa crus galli [14]; [22]
  pest or weed control at 320 g/ha: 60%
Abutilon theophrasti; [22]
  pest or weed control at 320 g/ha: 90%

From patent publication US8557741B2, “3-aminocarbonyl-substituted benzoylcyclohexanediones and their use as herbicides” (Bayer CropScience AG, priority 2010, dated 2013)
